Reference: patent US4029671A, “3-[(5-nitro-2-imidazolyl)pyrazol-5-yl]oxamic acid derivatives” (priority 1976, dated 1977)
≈ marks a conversion by molar mass, not a printed value. Counter-ions that a name gives are not always drawn.

How the values were obtained:
[1] = system: Salmonella typhimurium; assay: Control of infections caused by Salmonella typhimurium in chickens (Chart 2); format: in vivo; conditions: 60 mg./kg. subcutaneous, day-old chicks, 5 per group, 6 days observation
Procedure: The efficacy of the novel compounds in the control of infections caused by Salmonella typhimurium in chickens was evaluated in the following manner. The test was carried out using day-old chicks weighing approximately 35 g. each. The chicks were divided into groups of 5 chicks per each dosage level. A portion of the chicks received the test compound which was suspended in 0.2 ml. of polyethylene glycol 200 and administered subcutaneously in the neck. […] All the chicks were challenged with a 1:200 dilution of a culture of the organism, 0.1 ml. of the dilution being injected into each chick in the leg intramuscularly. […] The test compounds are identified in the same manner as set forth in experiment 1. In the chart, column 1 lists the compounds tested; column 2, the dosage of test compound in mg./kg.; and column 3, the survival ratio.

[2] = system: Clostridium perfringens 81; assay: microbe, parasite or virus in culture; format: cell-based; conditions: Clostridium perfringens, 81, 24 h, read-out: 24 Hr. MIC, agar dilution, 37° C.
[3] = system: Bacteroides fragilis sp. thetaiotaomicron 1438; assay: Agar dilution susceptibility of anaerobic bacteria (Chart 1); format: cell-based
[4] = system: Peptostreptococcus intermedius 1264; assay: as above; format: cell-based; conditions: Peptostreptococcus, 1264, 24 h, read-out: 24 Hr. MIC
[5] = system: Bacteroides fragilis sp. fragilis 2; assay: as above; format: cell-based; conditions: Bacteroides fragilis, 24 h, read-out: 24 Hr. MIC
[6] = system: Bacteroides fragilis sp. fragilis 113; assay: as above; format: cell-based
[7] = system: Bacteroides fragilis sp. fragilis 107; assay: as above; format: cell-based; conditions: Bacteroides fragilis, 24 h, read-out: 24 Hr. MIC
[8] = system: Bacteroides fragilis sp. vulgatis 1563; assay: as above; format: cell-based
[9] = system: Bacteroides fragilis sp. fragilis 112; assay: as above; format: cell-based
[10] = system: Peptococcus asaccharolyticus 1302; assay: as above; format: cell-based; conditions: Peptoniphilus asaccharolyticus, 1302, 24 h, read-out: 24 Hr. MIC
[11] = system: Clostridium septicum 1128; assay: as above; format: cell-based; conditions: Clostridium septicum, 1128, 24 h, 37° C.
Procedure: The susceptibility of anaerobic bacteria, both gram positive and gram negative, to a representative number of the novel compounds of this application was determined using the agar dilution method. The bacteria used were isolated from patients hospitalized at the Indiana Univerisity Medical Center. The isolates were identified in the anaerobe laboratory of the Medical Center by the criteria established by Dowell et al., Laboratory Methods in Anaerobic Bacteriology. Public Health Serv. Publ. NO. 1803 (1968) [Center for Disease Control, Atlanta, Ga.]; and by Smith et al., The Pathogenic Anaerobic Bacteria, pages 96- 136 (1968) [Charles C. Thomas, Publisher, Springfield, Ill.]. All the organisms were maintained in chopped meat glucose medium (Scott Labs) at room temperature.
The method used for the agar dilution tests was based on the studies of Sutter et al., Antimicrob. Ag. Chemother. 3, 188-193 (1973). The strains of anaerobic bacteria were grown in 16×× 120 mm. tubes for 16 to 18 hours in Thioglycolate medium without indicator-- 135C (Becton, Dickinson and Co.), to which was added 5 mcg. of hemin per milliliter prior to autoclaving, plus 1 mg. of sodium bicarbonate and 0.1 mcg. of filter-sterilized menadione per milliliter after autoclaving. The strains were adjusted to the turbidity of the No. 1 McFarland standard in Thioglycolate medium without indicator-- 135C containing an additional 0.13 percent Bacto-agar (Difco). Each strain was then applied to the surface of the petri plate (100 mm× 15 mm.) by means of a replicator.
For the agar dilution studies, two-fold dilutions of the test compounds were prepared in deionized water to which was then added laked sheep blood and filter-sterilized menadione so the concentrations after the agar dilution were 5 percent and 10 mcg./ml. respectively. An equal volume of double strength Brucella agar (Becton, Dickinson and Co.) was mixed with each dilution in a water bath held at 50° C. and then poured onto the petri dishes.
All of the procedures were done inside a plastic glove box, except for the incubation of the growth tubes and the pouring of the plates. After the plates hardened, they were put inside the glove box for a minimum of 2 hours before they were inoculated. Generally, the glove box procedures of Aranki et al., Applied Microbiology 17, 568-576 (1969), were followed, but the following modifications were used. Dry materials were introduced into the glove box by evacuating the lock to 28 inches of mercury and filling once with nitrogen gas, followed by evacuating in the same manner and filling with an 80 percent nitrogen plus 10 percent CO2 plus 10 percent hydrogen gas mixture. Liquid media and agar plates were introduced into the glove box by evacuating the lock to 10 inches of mercury and filling with gas four times. The nitrogen gas was used to fill the lock for the first two cycles of evacuation, with the gas mixture described above used for the final two fillings.
All the plates were incubated at 37° C. in Gas Pak jars (Becton, Dickinson and Co.) containing palladium-coated alumina catalysts (reactivated after each use). The results of the agar dilution tests were read after about 24 hours of incubation. The minimum inhibitory concentration (MIC) was recorded as the lowest concentration of test compound at which there was no growth.
The test compounds are identified by the number of the example describing their preparation. The antibiotics clindamycin (C), and erythromycin (E) were also run simultaneously with the novel compounds of this application,for comparison purposes, and the results are included in Chart 1 below.

[12] = system: Actinomyces israelii W855; assay: as above; format: cell-based; conditions: 24 h, agar dilution, 37° C., read-out: 24 Hr. MIC
[13] = system: Bacteroides melaninogenicus 2736; assay: as above; format: cell-based; conditions: 2736, 24 h, read-out: 24 Hr. MIC
[14] = system: Bacteroides fragilis sp. fragilis 1451; assay: as above; format: cell-based; conditions: Bacteroides fragilis, 24 h, read-out: 24 Hr. MIC
[15] = system: Bacteroides fragilis sp. fragilis 1877; assay: as above; format: cell-based
[16] = system: Bacteroides corrodens 1874; assay: as above; format: cell-based; conditions: Eikenella corrodens, 1874, 24 h, read-out: 24 Hr. MIC
[17] = system: Peptostreptococcus anaerobius 1428; assay: as above; format: cell-based; conditions: Peptostreptococcus anaerobius, 1428, 24 h, read-out: 24 Hr. MIC
[18] = system: Bacteroides fragilis sp. fragilis 1470; assay: as above; format: cell-based
[19] = system: Bacteroides fragilis sp. fragilis 104; assay: as above; format: cell-based; conditions: Bacteroides fragilis, 24 h, read-out: 24 Hr. MIC
[20] = system: Bacteroides fragilis sp. fragilis 103; assay: as above; format: cell-based
[21] = system: Bacteroides fragilis sp. thetaiotaomicron 1900A; assay: as above; format: cell-based
[22] = system: Fusobacterium symbiosum 1470; assay: as above; format: cell-based; conditions: Fusobacterium, 1470, 24 h, read-out: 24 Hr. MIC
[23] = system: Bacteroides fragilis sp. fragilis 108; assay: as above; format: cell-based
[24] = system: Fusobacterium necrophorum 6054A; assay: as above; format: cell-based; conditions: Fusobacterium necrophorum, 6054A, 24 h, read-out: 24 Hr. MIC
[25] = system: Bacteroides fragilis sp. fragilis 62; assay: as above; format: cell-based
[26] = system: Bacteroides fragilis sp. fragilis 1874; assay: as above; format: cell-based
[27] = system: Bacteroides melaninogenicus 1856/28; assay: as above; format: cell-based; conditions: Prevotella intermedia, 1856/28, 24 h, read-out: 24 Hr. MIC
[28] = system: Bacteroides fragilis sp. fragilis 111; assay: as above; format: cell-based
[29] = system: Eubacterium aerofaciens 1235; assay: as above; format: cell-based; conditions: Collinsella aerofaciens, 1235, 24 h, read-out: 24 Hr. MIC
[30] = system: Bacteroides fragilis sp. fragilis 106; assay: as above; format: cell-based
[31] = system: Peptococcus prevoti 1281; assay: as above; format: cell-based; conditions: 24 h, read-out: 24 Hr. MIC, agar dilution, 37° C.
[32] = system: Bacteroides vulgatis 1211; assay: as above; format: cell-based; conditions: Bacteroides, 1211, 24 h, read-out: 24 Hr. MIC
[33] = system: Bacteroides fragilis sp. fragilis 9; assay: as above; format: cell-based
[34] = system: Bacteroides fragilis sp. fragilis 110; assay: as above; format: cell-based
[35] = system: Bacteroides fragilis sp. fragilis 1936B; assay: as above; format: cell-based; conditions: Bacteroides fragilis, 24 h, read-out: 24 Hr. MIC
[36] = system: Propionibacterium acnes 79; assay: as above; format: cell-based; conditions: Cutibacterium acnes, 79, 24 h, read-out: 24 Hr. MIC
[37] = Bacteroides fragilis, 24 h, read-out: 24 Hr. MIC

Cn1nc(-c2ncc([N+](=O)[O-])n2C)c(C#N)c1NC(=O)C(=O)NO [Example 9, N-[4-Cyano-1-methyl-3-(1-methyl-5-nitroimidazol-2-yl)pyrazol-5-yl]-N'-hydroxyoxamide]
Survival Ratio [1]: 4/5

CC[C@H]1OC(=O)[C@H](C)[C@@H](O[C@H]2C[C@@](C)(OC)[C@@H](O)[C@H](C)O2)[C@H](C)[C@@H](O[C@@H]2O[C@H](C)C[C@H](N(C)C)[C@H]2O)[C@](C)(O)C[C@@H](C)C(=O)[C@H](C)[C@@H](O)[C@]1(C)O [E, erythromycin, reference compound]
MIC [2]: 1 µg/mL (≈ 1.36 µM) | MIC [3, 37]: 1 µg/mL (≈ 1.36 µM) | MIC [4]: ≤ 0.5 µg/mL | MIC [5]: 4 µg/mL (≈ 5.45 µM) | MIC [6, 37]: 2 µg/mL (≈ 2.73 µM) | MIC [7]: 2 µg/mL (≈ 2.73 µM) | MIC [8, 37]: 1 µg/mL (≈ 1.36 µM) | MIC [9, 37]: 32 µg/mL (≈ 43.6 µM) | MIC [10]: 1 µg/mL (≈ 1.36 µM) | MIC [11]: 1 µg/mL (≈ 1.36 µM) | MIC [12]: ≤ 0.5 µg/mL | MIC [13]: 1 µg/mL (≈ 1.36 µM) | MIC [14]: 0.5 µg/mL (≈ 0.681 µM) | MIC [15, 37]: 2 µg/mL (≈ 2.73 µM) | MIC [16]: ≤ 0.5 µg/mL | MIC [17]: ≤ 0.5 µg/mL | MIC [18, 37]: 8 µg/mL (≈ 10.9 µM) | MIC [19]: 2 µg/mL (≈ 2.73 µM) | MIC [20, 37]: 4 µg/mL (≈ 5.45 µM) | MIC [21, 37]: > 64 µg/mL | MIC [22]: ≤ 0.5 µg/mL | MIC [23, 37]: 2 µg/mL (≈ 2.73 µM) | MIC [24]: 8 µg/mL (≈ 10.9 µM) | MIC [25, 37]: 8 µg/mL (≈ 10.9 µM) | MIC [26, 37]: 0.5 µg/mL (≈ 0.681 µM) | MIC [27]: 4 µg/mL (≈ 5.45 µM) | MIC [28, 37]: 2 µg/mL (≈ 2.73 µM) | MIC [29]: ≤ 0.5 µg/mL | MIC [30, 37]: 4 µg/mL (≈ 5.45 µM) | MIC [31]: > 128 µg/mL | MIC [32]: 1 µg/mL (≈ 1.36 µM) | MIC [33, 37]: 4 µg/mL (≈ 5.45 µM) | MIC [34, 37]: 16 µg/mL (≈ 21.8 µM) | MIC [35]: 2 µg/mL (≈ 2.73 µM) | MIC [36]: ≤ 0.5 µg/mL

CCOC(=O)C(=O)Nc1c(C#N)c(-c2ncc([N+](=O)[O-])n2C)nn1C [Example 3, N-[4-Cyano-1-methyl-3-(1-methyl-5-nitroimidazol-2-yl)pyrazol-5-yl]oxamic acid, ethyl ester, potassium salt]
24 Hr. MIC ([3]; agar dilution, 37° C., Bacteroides fragilis sp. thetaiotaomicron 1438, potassium salt): 0.5 µg/mL | 24 Hr. MIC ([6]; agar dilution, 37° C., Bacteroides fragilis sp. fragilis 113, potassium salt): 0.5 µg/mL | 24 Hr. MIC ([8]; agar dilution, 37° C., Bacteroides fragilis sp. vulgatis 1563, potassium salt): 0.25 µg/mL | 24 Hr. MIC ([9]; agar dilution, 37° C., Bacteroides fragilis sp. fragilis 112, potassium salt): 0.25 µg/mL | 24 Hr. MIC ([15]; agar dilution, 37° C., Bacteroides fragilis sp. fragilis 1877, potassium salt): 0.25 µg/mL | 24 Hr. MIC ([18]; agar dilution, 37° C., Bacteroides fragilis sp. fragilis 1470, potassium salt): 0.25 µg/mL | Survival Ratio ([1]; potassium salt): 3/5 | 24 Hr. MIC ([20]; agar dilution, 37° C., Bacteroides fragilis sp. fragilis 103, potassium salt): 0.125 µg/mL | 24 Hr. MIC ([21]; agar dilution, 37° C., Bacteroides fragilis sp. thetaiotaomicron 1900A, potassium salt): 0.5 µg/mL | 24 Hr. MIC ([23]; agar dilution, 37° C., Bacteroides fragilis sp. fragilis 108, potassium salt): 0.25 µg/mL | 24 Hr. MIC ([25]; agar dilution, 37° C., Bacteroides fragilis sp. fragilis 62, potassium salt): 0.5 µg/mL | 24 Hr. MIC ([26]; agar dilution, 37° C., Bacteroides fragilis sp. fragilis 1874, potassium salt): 0.25 µg/mL | 24 Hr. MIC ([28]; agar dilution, 37° C., Bacteroides fragilis sp. fragilis 111, potassium salt): 0.25 µg/mL | 24 Hr. MIC ([30]; agar dilution, 37° C., Bacteroides fragilis sp. fragilis 106, potassium salt): 0.25 µg/mL | 24 Hr. MIC ([33]; agar dilution, 37° C., Bacteroides fragilis sp. fragilis 9, potassium salt): 0.25 µg/mL | 24 Hr. MIC ([34]; agar dilution, 37° C., Bacteroides fragilis sp. fragilis 110, potassium salt): 0.5 µg/mL
